Assays:
[1] = logP determination by HPLC on a reversed-phase column (C18), EEC Directive 79/831 Annex V.A8; assay type: physicochemical; details: HPLC on reversed-phase column (C18), acetonitrile/water with formic acid, EEC Directive 79/831 Annex V.A8
Procedure, shortened: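 Per EEC 79/831 Annex V.A8, values derive from HPLC retention at 2.0 ml/min and 55° C on a 50*4.6 C18 column. The 10→95% acetonitrile gradient (0.1%/0.09% formic acid) lasted 4.25 min plus a 1.25 min hold; mass detection was by MSD.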

[2] = tested on: engorged adult female cattle ticks (Boophilus microplus); assay: Boophilus microplus injection test (BOOPMI Inj); assay type: in vivo; details: application rate 20 μg/animal; injection into abdomen; assessed after 7 days
Procedure, shortened: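 Efficacy is read at 7 days as fertile egg laying (100% = no fertile eggs laid; 0% = all eggs fertile), with eggs of unclear fertility stored until larvae hatch at about 42 days. Five engorged adult females per dose each receive an abdominal injection of 1 μl compound dissolved in DMSO.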

[3] = tested on: adult cat fleas (Ctenocephalides felis); assay: Ctenocephalides felis oral test (CTECFE); assay type: in vivo; details: application rate 100 ppm in citrated cattle blood; after 2 days
Procedure, shortened: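 Mortality read at 2 days as percent of fleas killed. Compound predissolved in DMSO, diluted into citrated cattle blood and offered to roughly 20 unfed adult C. felis via parafilm membrane feeder.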

[4] = tested on: L1 larvae of the Australian sheep blowfly (Lucilia cuprina); assay: Lucilia cuprina test (LUCICU); assay type: in vivo; details: application rate 100 ppm; after 2 days
Procedure, shortened: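 Percent mortality read at 2 days; 100% = all larvae killed, 0% = none. Test compound, predissolved in DMSO and water-diluted to the wanted level, was mixed into minced horsemeat holding roughly 20 first-instar larvae.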

[5] = tested on: adult houseflies (Musca domestica); assay: Musca domestica test (MUSCDO); assay type: in vivo; details: application rate 100 ppm; after 2 days
Procedure, shortened: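 Groups of 10 adult Musca domestica exposed to a sugar-soaked sponge treated with the water-diluted DMSO preparation of compound at the chosen concentration. Percent kill read at day 2, where 0% means no flies killed and 100% all killed.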

[6] = tested on: larvae of the mustard beetle (Phaedon cochleariae); assay: Phaedon cochleariae spray test (PHAECO); assay type: in vivo; details: Chinese cabbage leaf discs, after 7 days
Procedure, shortened: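 Kill of mustard beetle larvae is read as % mortality 7 days after spraying. Spray liquid: active compound in acetone plus dimethylformamide, brought up with water holding 1000 ppm alkylaryl polyglycol ether emulsifier and diluted further in emulsifier-water.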

[7] = tested on: caterpillars of the armyworm (Spodoptera frugiperda); assay: Spodoptera frugiperda spray test (SPODFR); assay type: in vivo; details: maize leaf discs, after 7 days
Procedure, shortened: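 Percent kill read at day 7 on caterpillar-infested maize leaf discs. Discs were first sprayed with aqueous emulsifier-containing (1000 ppm) preparations made from acetone/dimethylformamide solutions, and dried. Scale: 0% none dead, 100% all dead.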

[8] = tested on: adult cat fleas (Ctenocephalides felis); assay: Ctenocephalides felis in vitro contact test with adult cat fleas (T1); details: after 48 h
Procedure, shortened: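 Adult cat fleas (Ctenocephalides felis), 5-10 per tube, were exposed to the inner surface of 25 ml test tubes coated with compound in acetone. Tubes were incubated lying flat under ambient conditions. Efficacy was then read by standing tubes upright and knocking the fleas to the floor. Fleas that stayed motionless or moved uncoordinatedly counted as dead or moribund, where 100% means all fleas dead or moribund and 0% means none harmed.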

[9] = tested on: adult dog ticks (Rhipicephalus sanguineus); assay: Rhipicephalus sanguineus in vitro contact test with adult brown dog ticks (T2); details: after 48 h
Procedure, shortened: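 Acetone solutions coated onto test tube walls and floor, giving 5 μg/cm^2 at 900 ppm. Five to ten adult ticks held per tube in the dark at room temperature for 48 h, then heated at 45-50° C for up to 5 min; efficacy is the percentage of dead or moribund ticks unable to climb away.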

[10] = tested on: adult castor bean ticks (Ixodes ricinus); assay: Ixodes ricinus in vitro contact test with adult castor bean ticks (T3); details: after 48 h
Experimental: T3. Ixodes ricinus-in vitro Contact Tests with Adult Castor Bean Ticks
For the coating of the test tubes, initially 9 mg of active compound are dissolved in 1 ml of acetone p.a. and then diluted with acetone p.a. to the desired concentration. By turning and rocking on an orbital shaker (2 h of rocking rotation at 30 rpm), 250 μl of the solution are distributed homogeneously on the internal walls and the floor of a 25 ml test tube. At 900 ppm active compound solution and 44.7 cm^2 internal surface, an area dose of 5 μg/cm^2 is achieved for homogeneous distribution.
After evaporation of the solvent, the tubes are populated with 5-10 adult castor bean ticks (Ixodes ricinus), sealed with a perforated plastic lid and incubated in a horizontal position in the dark at 22° C. and 90% humidity in a climate-controlled cabinet. After 48 h, the efficacy is determined. To this end, the ticks are knocked to the floor of the tube and incubated on a hotplate at 45-50° C. for at most 5 min. Ticks which remain motionless on the floor or move in an uncoordinated manner such that they are not able to deliberately avoid the heat by climbing upwards are considered to be dead or moribund.
An efficacy of 100% means that all ticks were dead or moribund. 0% efficacy means that none of the ticks had been damaged.

[11] = tested on: bont tick nymphs (Amblyomma hebraeum); details: after 48 h
[12] = tested on: cattle ticks (Boophilus microplus) Parkhurst strain, SP-resistant; assay: Boophilus microplus dip test (BOOPMI Dip); assay type: in vivo; details: application rate 100 ppm, assessed after 7 days
Procedure, shortened: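 Adult engorged female SP-resistant Parkhurst ticks (8–10) were fully immersed in compound diluted in water from a DMSO solution, then kept in a climate-controlled room. After 7 days, fertile egg-laying was scored, with larval hatching checked at about 42 days; 100% efficacy means no fertile eggs.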

[13] = tested on: green peach aphid (Myzus persicae); assay: Myzus persicae spray test (MYZUPE); assay type: in vivo; details: Chinese cabbage leaf discs, after 6 days
Procedure, shortened: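 Chinese cabbage leaf discs infested with all aphid stages sprayed with compound in acetone/DMF with alkylaryl polyglycol ether emulsifier in water. Efficacy (% aphids killed; 100% all dead, 0% none) scored after 6 days.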

[14] = tested on: greenhouse red spider mite (Tetranychus urticae); assay: Tetranychus urticae spray test, OP-resistant (TETRUR); assay type: in vivo; details: bean leaf discs, after 6 days
Procedure, shortened: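 Percent kill, scored 6 days post-spray (0% = none dead, 100% = all dead), on Phaseolus vulgaris leaf discs infested with every life stage of the OP-resistant spider mite. Compound dissolved in acetone plus DMF, diluted to test concentration with emulsifier-containing water (1000 ppm).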

[15] = tested on: Tick nymphs (Amblyomma hebraeum); assay: Amblyomma hebraeum test (AMBYHE), tick nymphs immersed; assay type: in vivo; details: application rate 100 ppm; immersed one minute; after 42 days
Experimental: A. Amblyomma hebaraeum Test (AMBYHE)
Solvent: dimethyl sulphoxide
To produce a suitable preparation of active compound, 10 mg of active compound are mixed with 0.5 ml of dimethyl sulfoxide, and the concentrate is diluted with water to the desired concentration.
Tick nymphs (Amblyomma hebraeum) are placed into perforated plastic beakers and immersed in the desired concentration for one minute. The ticks are transferred on filter paper into a Petri dish and stored in a climate-controlled cabinet.
After 42 days, the kill in % is determined. 100% means that all of the ticks have been killed; 0% means that none of the ticks have been killed.

| Compound | efficacy (laying of fertile eggs) [2] | efficacy (kill in %) [3] | efficacy (kill in %) [4] | efficacy (kill in %) [5] | efficacy (dead or moribund fleas) ([8]; application rate 1 μg/cm^2) | efficacy (dead or moribund fleas) ([8]; application rate 5 μg/cm^2) | efficacy (dead or moribund ticks) ([9]; application rate 1 μg/cm^2) | efficacy (dead or moribund ticks) ([9]; application rate 5 μg/cm^2) | efficacy (dead or moribund ticks) ([10]; application rate 5 μg/cm^2) | efficacy (dead or moribund ticks) [11] | efficacy (laying of fertile eggs) [12] | efficacy in % ([6]; application rate 500 g/ha) | efficacy in % ([7]; application rate 500 g/ha) | efficacy (dead or moribund ticks) ([10]; application rate 1 μg/cm^2) | efficacy (kill in %) [15] | efficacy in % ([13]; application rate 500 g/ha) | efficacy in % ([14]; application rate 500 g/ha) | other results |
| --- | --- | --- | --- | --- | --- | --- | --- | --- | --- | --- | --- | --- | --- | --- | --- | --- | --- | --- |
| Cn1nc(C(F)(F)C(F)(F)F)c(C(F)(F)F)c1-n1cc(-c2cccc(C(=O)NC3CC3)c2)cn1 [Ic-18] | 100% | 100% | 100% | 100% | 100% | 100% | 100% | 100% | 80% | 100% | – | – | – | – | – | – | – | logP [1]: 3.66; efficacy in % ([6]; application rate 100 g/ha): 100%; efficacy in % ([7]; application rate 100 g/ha): 100% |
| Cn1nc(C(F)(F)C(F)(F)F)c(C(F)(F)F)c1-n1cc(-c2cc(C(=O)NC3(C#N)CC3)c(F)cc2Cl)cn1 [Ic-48] | 100% | 100% | 100% | 100% | 100% | 100% | 100% | 100% | 100% | 100% | 80% | 100% | 100% | 80% | – | – | – | efficacy in % ([13]; application rate 100 g/ha): 90%; efficacy in % ([14]; application rate 100 g/ha): 90% |
| Cn1nc(C(F)(F)C(F)(F)F)c(C(F)(F)F)c1-n1cc(-c2cc(C(=O)NC3CC3)c(F)cc2Cl)cn1 [Ic-49] | 100% | 100% | 100% | 100% | 100% | 100% | 100% | 100% | – | 100% | 100% | 100% | 100% | – | 100% | 90% | 90% | – |
| Cc1ncc(-c2cnn(-c3c(C(F)(F)F)c(C(F)(F)C(F)(F)F)nn3C)c2)cc1C(=O)NC1(C#N)CC1 [Ic-85] | 100% | 100% | 100% | 100% | 100% | 100% | 100% | 100% | – | – | 100% | 100% | 100% | – | 100% | 100% | 100% | – |
| COc1ncc(-c2cnn(-c3c(C(F)(F)F)c(C(F)(F)C(F)(F)F)nn3C)c2)cc1C(=O)NC1CC1 [Ic-86] | 100% | 100% | 100% | 100% | 100% | 100% | 100% | 100% | 100% | 100% | 100% | 100% | 100% | 80% | – | 100% | 100% | – |
| COc1ncc(-c2cnn(-c3c(C(F)(F)F)c(C(F)(F)C(F)(F)F)nn3C)c2)cc1C(=O)NC1(C#N)CC1 [Ic-87] | 100% | 100% | 100% | 100% | 100% | 100% | 100% | 100% | 100% | 100% | – | 100% | 100% | 80% | – | – | 100% | efficacy in % ([13]; application rate 100 g/ha): 90% |
| Cc1cc(-c2cnn(-c3c(C(F)(F)F)c(C(F)(F)C(F)(F)F)nn3C)c2)cc(C(=O)NC2CC2)c1Cl [Ic-90] | 100% | 100% | 100% | 100% | 100% | 100% | 100% | 100% | 100% | 100% | 100% | 100% | 100% | 100% | – | 100% | 90% | – |
| Cc1cc(-c2cnn(-c3c(C(F)(F)F)c(C(F)(F)C(F)(F)F)nn3C)c2)cc(C(=O)NC2(C#N)CC2)c1Cl [Ic-91] | 100% | 100% | 100% | 100% | 100% | 100% | – | 80% | – | – | 100% | 100% | 100% | – | 100% | 100% | 100% | – |
